Data: patent publication US20080155704A1, “Methods and Compositions for Determining in vivo Activity of BiP” (King's College London, priority 2006, published 2008)

What was measured:
Type in all cases: cell-based, human
T cells = test: Regulatory markers on T cells co-cultured with BiP-treated dendritic cells
Experimental: FIG. 11: Co-culture of T cells with BiP-treated dendritic cells (DC) upregulates regulatory markers. […] Mean ±standard deviation of three experiments is shown.
Intracellular staining was carried out with fixed cells incubated with 1% paraformaldehyde in IF buffer for 5 minutes at room temperature. The cells were washed twice with IF buffer containing 0.3% saponin for permeabilization. 0.3% saponin was then present in all IF buffer used thereafter. CTLA-4/CD152 (BD), FoxP3 (eBioscience) and indolamine 2,3-dioxygenase (Santa Cruz) and cytokines required intracellular staining. Antibodies were added at the pre-determined optimal concentration for 20 mins and then the cells were washed twice with IF buffer and analysed. Isotype controls, IgG1 and IgG2a (Becton Dickinson, Oxford, UK) were used in parallel. Cells were analysed on a FACScan cytometer using Cellquest software (Becton Dickinson, Oxford, UK).
T cells were purified from peripheral blood mononuclear cells and set up in culture with either allogeneic or autologous dendritic cells, which had been washed and irradiated, at a ratio of 10 T cells:1 DC. The cells were co-cultured in a 24 well plate in 1 ml/well, in RPMI 1640 supplemented with 10% foetal calf serum, for 4 days then the T cells were removed and washed before being investigated for the presence of T regulatory cells (see below)
Immunofluorescent staining was performed, as described previously (39), on DC harvested at day 7, T cells after 4 days co-culture with DC. Saturating concentrations of fluorescein isothiocyanate (FITC)-, phycoerythrin (PE) or peridium chlorophyll (Per-CP)-conjugated mAb were added recognizing CD14, CD86, CD80, HLA-DR, CD11c, CD1a, CD83, CD85j, IL-10 receptor; purity of the negatively selected MO and T cells was checked using CD3, CD4, CD14, CD20 and CD57 (all from Becton Dickinson/PharMingen (BD), Oxford, UK). Intracellular staining was carried out following fixation of cells with 1% paraformaldehyde for 5 minutes. Cells were then washed with immunofluorescence buffer (PBS/0.1% BSA/0.05% azide) containing 0.3% saponin. 0.3% saponin was then present in all solutions thereafter. CD152/CTLA-4 (BD, Oxford UK) and IDO (Santa Cruz, Autogen Bioclear, UK) were intracellular stains. Isotype controls, IgG1 and IgG2a (BD, Oxford, UK) were used in parallel. Cells were analysed on a FACScan/FACScalibur cytometers using Cellquest software (BD, Oxford, UK).

allogeneic T cells = test: Allogeneic proliferative response to early BiP treated DC (tritiated thymidine uptake); details: early DC 72 h; inhibitors 10 μM 2 h pre-treatment of monocytes; anti-IL-10 neutralizing antibody (FIG. 13A, B)
Experimental: Allogeneic responses by T cells in culture with irradiated (3,000 rads) early DC (eDC), after only 3d in culture with GM-CSF and IL-4 in the presence or absence of BiP (20 μg/ml) at a ratio of 10:1 PBMC:DC (105:10^4 cells/well). The results are shown as an allogeneic proliferative response (A) following addition of neutralizing anti-IL-10 ( 1/100 dilution) antibody and (B) the pre-treatment (2 h) of monocytes (MO) with p38 inhibitor, SB203580 (SB)(10 μM) or the ERK1/2 inhibitor, PD 98059 (PD)(10 μM), prior to the addition of GM-CSF and IL-4 to the cultures. The proliferation of PBMC to early DC following (C) the addition of BiP 24 h post addition of GM-CSF and IL-4. Proliferation was measured by uptake of tritiated thymidine and recorded as counts per minute (cpm). ELISA was used to detect IL-10 (D) in the culture supernatants and (E) by 7d cultured iDC/iDC(BiP) and fully matured mDC/mDC(BiP) differentiated as described in following 7d culture in GM-CSF and IL-4 with LPS (500 ng/ml) added for the final 2d.
(§1) To neutralize IL-10 within the cultures anti-IL-10 antibody (ATCC, Rockville, USA) was added at day 0 (5 μg/ml) to GM-CSF and IL-4 treated cultures in the presence and absence of BiP (20 μg/ml). Two specific cell-permeable inhibitors of the MAPK intracellular signalling pathways were used. SB203580 (SB)(10 μM)((Calbiochem, Darmstadt, Germany) inhibits p38 MAPK, and PD98059 (PD) (10 μM)(Calbiochem), an inhibitor of MAPK extracellular signal regulated kinase (ERK), were tested. MO were pre-treated with the inhibitors for 2 h before adding GM-CSF and IL-4 in the presence or absence of BiP.

IL-10 = IL-10 production by dendritic cell cultures (ELISA); details: 3d GM-CSF and IL-4 with BiP 20 μg/ml; inhibitors 10 μM, anti-IL-10 added at day 0 (FIG. 13D)
Experimental: (§2) Supernatant samples were collected on day 1, 3 and 7 for iDC and from the final cultures of the T cells taken from the iDC/mDC-T cell allogeneic test system and set up with autologous cells to determine if there was any regulatory activity. The samples were aliquoted and frozen at −70° C. until required. Production IL-10 was quantified by ELISA using paired antibodies and recombinant standards (PharMingen, Oxford, UK) according to the recommendations of the manufacturer. In addition some were analysed by cytometric bead assay (BD, Oxford, UK) according to the manufacturers instructions.
as §1
as §2, with “of the pro-inflammatory cytokine, TNFα, and the anti-inflammatory cytokine, IL-10,” for “IL-10”

Question: `Cn1cc(C[C@H](N)C(=O)O)c2ccccc21` [1MT, 1 methyl tryptophan, reference compound] was tested. Which “proliferation of T cells in an allogeneic response after co-culture with 1MT” value (T cells; 1MT 200 μM added to co-cultures of T cells with autologous mDC or mDC(BiP)) did it give?
Answer: increased proliferation by the T cells

Question: What about the “T cell expression of intracellular CTLA-4 in the presence of 1MT” value (T cells; 1MT 200 μM in mDC/mDC(BiP)-T cell co-cultures, n=3) of the same compound?
Answer: significant reduction in T cell expression of CTLA-4

Question: `COc1cccc(-c2cc(=O)c3ccccc3o2)c1N` [PD98059, reference compound] was tested. Which “reversal of BiP's inhibitory activity on the allogeneic response” value (allogeneic T cells) did it give?
Answer: could not

Question: What about the “IL-10 production by early DC(BiP) cultures” value (IL-10) of the same compound?
Answer: did not inhibit IL-10 production

Question: Which “reversal of BiP's inhibitory activity on the allogeneic response” value (allogeneic T cells) does the source give for `C[S+]([O-])c1ccc(-c2nc(-c3ccncc3)c(-c3ccc(F)cc3)[nH]2)cc1` (stereo not drawn) [SB203580, reference compound] here?
Answer: totally reversed BiP's inhibitory activity

Question: What about the “IL-10 production by early DC(BiP) cultures” value (IL-10) of the same compound?
Answer: not detected
